# Measured values published in USRE39591E1, “6-O-substituted ketolides having antibacterial activity” (Abbott Laboratories, priority 1996, dated 2007).
# Tested on: up to 32 different microorganisms
# Assay: in vitro antibacterial activity (MIC), agar dilution on Brain Heart Infusion (BHI) agar with Steers replicator
# Assay type: cell-based
# Conditions: unit assumed
# Summary of the method: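 Erythromycin A served as the same-class reference for test-to-test comparability. Test compound was tested over twelve successive dilutions in BHI agar; plates were incubated 20 to 24 hours at 35°-37° C, with MIC taken as the lowest concentration showing no growth, slight haze, or sparse colonies.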
Structure (SMILES),MIC (organism code AA),MIC (organism code BB),MIC (organism code CC),MIC (organism code DD),MIC (organism code EE),MIC (organism code FF),MIC (organism code GG),MIC (organism code HH),MIC (organism code II),MIC (organism code JJ),MIC (organism code KK),MIC (organism code LL),MIC (organism code MM),MIC (organism code NN),MIC (organism code OO),MIC (organism code PP),MIC (organism code QQ),MIC (organism code RR),MIC (organism code SS),MIC (organism code TT),also measured
"CCC1OC(=O)C(C)C(=O)C(C)C(OC2OC(C)CC(N(C)C)C2O)C(C)(OCc2cccc(I)c2)CC(C)C(=O)C(C)C2NC(=O)OC12C (stereo not drawn) [Example 285, Compound of Formula (IX): L is CO, T is NH2, R is —CH2-(3-iodophenyl)]",3.1 µg/mL,3.1 µg/mL,> 100 µg/mL,3.1 µg/mL,3.1 µg/mL,3.1 µg/mL,> 100 µg/mL,3.1 µg/mL,0.39 µg/mL,0.2 µg/mL,0.2 µg/mL,0.05 µg/mL,100 µg/mL,0.78 µg/mL,0.39 µg/mL,0.39 µg/mL,> 100 µg/mL,12.5 µg/mL,> 100 µg/mL,> 100 µg/mL,MIC (organism code UU): 6.2 µg/mL; MIC (organism code VV): 1.56 µg/mL; MIC (organism code WW): > 128 µg/mL; MIC (organism code XX): 0.25 µg/mL; MIC (organism code YY): 0.25 µg/mL; MIC (organism code ZZ): 64 µg/mL; MIC (organism code ZZA): 1 µg/mL
"CCC1OC(=O)C(C)C(=O)C(C)C(OC2OC(C)CC(N(C)C)C2O)C(C)(OCC=Cc2ccc3cc(O)ccc3c2)CC(C)C(=O)C(C)C2NC(=O)OC12C (stereo not drawn) [Example 287, Compound of Formula (IX): L is CO, T is NH2, R is —CH2CH═CH-(6-hydroxy-2-naphthyl)]",0.1 µg/mL,0.1 µg/mL,> 100 µg/mL,0.1 µg/mL,0.1 µg/mL,0.02 µg/mL,> 100 µg/mL,0.1 µg/mL,0.05 µg/mL,0.02 µg/mL,0.02 µg/mL,0.02 µg/mL,3.1 µg/mL,0.1 µg/mL,0.02 µg/mL,0.2 µg/mL,50 µg/mL,0.39 µg/mL,> 100 µg/mL,> 100 µg/mL,MIC (organism code UU): 0.39 µg/mL; MIC (organism code VV): 0.05 µg/mL; MIC (organism code WW): 2 µg/mL; MIC (organism code XX): 0.03 µg/mL; MIC (organism code YY): 0.03 µg/mL; MIC (organism code ZZ): 4 µg/mL; MIC (organism code ZZA): 0.5 µg/mL
"CCC1OC(=O)C(C)C(=O)C(C)C(OC2OC(C)CC(N(C)C)C2O)C(C)(OCC=Cc2ccc3cc(OCCBr)ccc3c2)CC(C)C(=O)C(C)C2NC(=O)OC12C (stereo not drawn) [Example 288, Compound of Formula (IX): L is CO, T is NH2, R is —CH2CH═CH-(6-(2-bromoethoxy)-2-naphthyl)]",0.1 µg/mL,0.2 µg/mL,> 100 µg/mL,0.39 µg/mL,0.39 µg/mL,0.39 µg/mL,100 µg/mL,0.39 µg/mL,0.39 µg/mL,0.01 µg/mL,0.02 µg/mL,0.1 µg/mL,12.5 µg/mL,0.39 µg/mL,0.02 µg/mL,0.39 µg/mL,> 100 µg/mL,3.1 µg/mL,> 100 µg/mL,> 100 µg/mL,MIC (organism code UU): 0.39 µg/mL; MIC (organism code VV): 0.39 µg/mL; MIC (organism code WW): 8 µg/mL; MIC (organism code XX): 0.125 µg/mL; MIC (organism code YY): 0.125 µg/mL; MIC (organism code ZZ): 16 µg/mL; MIC (organism code ZZA): 1 µg/mL
"CCC1OC(=O)C(C)C(=O)C(C)C(OC2OC(C)CC(N(C)C)C2O)C(C)(OCC#CC=Cc2ccccc2)CC(C)C(=O)C(C)C2NC(=O)OC12C (stereo not drawn) [Example 291, Compound of Formula (IX): L is CO, T is NH, R is —CH2C≡C-(2-phenylethenyl)]",0.05 µg/mL,0.05 µg/mL,> 100 µg/mL,0.05 µg/mL,0.05 µg/mL,0.05 µg/mL,> 100 µg/mL,0.05 µg/mL,0.02 µg/mL,≤ 0.005 µg/mL,≤ 0.005 µg/mL,≤ 0.005 µg/mL,3.1 µg/mL,0.1 µg/mL,≤ 0.005 µg/mL,0.05 µg/mL,25 µg/mL,0.1 µg/mL,50 µg/mL,> 100 µg/mL,MIC (organism code UU): 0.39 µg/mL; MIC (organism code VV): 0.01 µg/mL; MIC (organism code WW): 2 µg/mL; MIC (organism code XX): ≤ 0.004 µg/mL; MIC (organism code YY): ≤ 0.004 µg/mL; MIC (organism code ZZ): 1 µg/mL; MIC (organism code ZZA): 0.125 µg/mL
"CCC1OC(=O)C(C)C(=O)C(C)C(OC2OC(C)CC(N(C)C)C2O)C(C)(OCC=Cc2ccc(-c3ccon3)s2)CC(C)C(=O)C(C)C2NC(=O)OC12C (stereo not drawn) [Example 292, Compound of Formula (IX): L is CO, T is NH, R is —CH2CH═CH-(5-(3-ixoxazolyl)-2-thiophenyl)]",0.1 µg/mL,0.1 µg/mL,> 100 µg/mL,0.1 µg/mL,0.1 µg/mL,0.1 µg/mL,> 100 µg/mL,0.05 µg/mL,0.02 µg/mL,≤ 0.005 µg/mL,0.02 µg/mL,0.01 µg/mL,12.5 µg/mL,0.05 µg/mL,0.02 µg/mL,0.1 µg/mL,50 µg/mL,0.2 µg/mL,100 µg/mL,> 100 µg/mL,MIC (organism code UU): 0.78 µg/mL; MIC (organism code VV): 0.02 µg/mL; MIC (organism code WW): 2 µg/mL; MIC (organism code XX): 0.03 µg/mL; MIC (organism code YY): 0.03 µg/mL; MIC (organism code ZZ): 16 µg/mL; MIC (organism code ZZA): 0.25 µg/mL
